{"source": "patent US12491230B2", "about": "“Peptides for use in promoting transport of glucose” (NURITAS LIMITED, priority 2015, dated 2025)", "key": {"[1]": {"test_system": "L6-GLUT4myc cells", "experiment": "Cell viability / cell death seen in the GLUT4 translocation experiment", "type": "cell-based, rat", "conditions": "synthetic peptide 200 μM, 3 hours", "protocol": "(§1) L6-GLUT4myc cells were serum-starved for three hours prior to incubation with 100 nM of insulin for 30 mins, or 200, 20, 2.0 and 0.2 μM of SP, and 2, 1, 0.5 and 0.25 mg/ml of peptide composition for 3 hours respectively. A 3 hour incubation period was selected based on previous findings identifying that incubation with branch chain amino acid containing di-peptides for 3 hours increases glucose uptake in L6 myotubes 1. Treatments were staggered in order to determine GLUT4myc translocation at the same time point."}, "[2]": {"test_system": "GLUT4", "experiment": "Measurement of GLUT4myc translocation in L6 myotubes (antibody-coupled colorimetric assay)", "type": "cell-based, rat", "conditions": "L6-GLUT4myc cells", "description": "We determined the effect of six synthetic peptides (SP1-6) and four peptide compositions on in vitro GLUT4 translocation using the L6 rat skeletal muscle cell line. A clone of the L6 cell line containing overexpression of GLUT4 tagged with a c-myc epitope (courtesy of Prof. Amira Klip, Hospital for Sick Children, Toronto) was used to investigate the efficacy of each synthetic peptide and peptide composition for effects on GLUT4 translocation in a dose-response design.\nL6-GLUT4myc cells were grown in 10% FBS and 2 μg/ml blasticidin. Cells were grown for 48-72 hours before being seeded in 24-well plates at 15,000 cells per well in 2% FBS and allowed to differentiate for 6 to 8 days prior to experimentation.\nas §1\nThe quantity of myc-tagged GLUT4 at the cell surface was measured by antibody-coupled colorimetric assay. Briefly, after incubation with either insulin for 30 mins or synthetic peptide or peptide composition for 3 hours respectively, L6-GLUT4myc cells were fixed via incubation with 3% paraformaldehyde (PFA). A 0.1 M glycine solution was then added to quench PFA and cells were blocked with 5% goat serum. The myotube monolayer was exposed to anti-myc antibody and then incubated with peroxidase conjugated donkey anti-mouse IgG. 1 mL of o-phenylenediamine dihydrochloride (OPD) reagent was added to each well and this reaction was stopped by adding 250 μl/well of 3 M HCL. To determine GLUT4 translocation to cell surface, a measured aliquot of each condition was determined spectrophotometrically on a plate reader using absorbance at 492 nm. […]"}}, "note": "No end group written: not given here.", "data": [{"substance": "DTFYNAAWDPSNR [SP1, DTFYNAAWDPSNR]", "values": [{"measurement": "cell viability", "setting": "[1]", "value": "poor cell viability"}]}, {"substance": "VLDLAIPVNRPGQL [SP2]", "values": [{"measurement": "stimulatory effect on skeletal muscle GLUT4 translocation (conclusion of the experiment)", "setting": "[2]; dose-response design", "value": "displayed a trend for stimulatory effect"}, {"measurement": "GLUT4 translocation", "setting": "[2]; synthetic peptide 0.2-2 μM, 3 hours", "value": "trend for SP2 to increase GLUT4 translocation"}]}, {"substance": "insulin [reference compound]", "values": [{"measurement": "average increase in cell surface GLUT4 translocation compared to untreated control", "setting": "[2]; 100 nM insulin, 30 mins", "value": 1.72, "unit": "fold"}]}]}
